Data published in patent publication US11872262B2, “Means and methods for treating bacterial infections” (VIB VZW, priority 2017, dated 2024).
Residues, ends and D or L forms follow the SMILES beside them. *: point of attachment. FITC = O=C1OC2(c3ccc(O)cc3Oc3cc(O)ccc32)c2ccc(NC(=S)*)cc21

What was measured:
E. coli O157:H7 = type: cell-based, Escherichia coli; details: screening-stage peptides tested at 1, 6, 12 and 25 μg/mL
Outline: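 Tandem-repeat aggregation-prone-region peptides from DMSO stocks were tested for growth inhibition of E. coli O157:H7 at 1, 6, 12 and 25 μg/mL.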

E. coli O157 = type: cell-based, Escherichia coli; details: HPLC-grade purified peptides, E. coli O157
Experimental: The MICs of active peptides were determined via the Broth microdilution assay according to the EUCAST guideline, which were performed in 96-well polystyrene flat-bottom microtiter plates (BD Biosciences). Briefly, a single colony was inoculated into 5 mL LB medium and grown to the end-exponential growth phase in a shaking incubator at 37° C. Cultures were subsequently diluted to an OD600 of 0.002 ([…]) in fresh LB medium. 100 μL of LB medium with different concentration of peptides ranging from 100 μg/mL to 1 μg/mL were serially diluted to the sterile 96-well plate (at least 3 wells in each plate). Afterward, 100 μL of the diluted bacteria were pipetted into 96-well plates containing different concentration of peptides. In each plate, the grown bacteria with maximum concentration of carrier and medium were considered as positive and negative controls, respectively. Thereafter, 96-well plates was statically incubated overnight at 37° C. to allow bacterial growth. A multipurpose UV/VIS plate reader at OD590 nm, 1 s shaking measured the absorbance of the growth bacteria using a Perkin Elmer spectrophotometer (1420 Multilabel Counter Victor 3).

[1] = Biodistribution study in healthy animals; type: in vivo, mice; details: single dose of 10 mg/kg, IP or urinary tract
Experimental: FIG. 7: Fluorescence imaging of organs ex vivo 3 h after a single injection (10 mg/kg) of Colpeptin1.
Given these positive results, we then established the tolerance of the Swiss mice to the peptide by performing a dose escalation experiment. […] The parameters observed included body weight, food and water consumption, home cage activity and locomotion. […] Based on these observations, we tested the antibacterial efficacy of the colpeptin1 in a mouse bladder infection model. In this model, an inoculum of 50 μL of a 10^8 CFU/mL suspension of E. coli O157:H7 was delivered via the urethra to the bladder of healthy Swiss mice. 1 h post-infection, we administered a single injection of colpeptin1 at 10 mg/kg, either via the urethra (n=15) or intraperitoneally (n=15). 24 h after treatment, the animals were sacrificed and the bacterial titer in kidney, colon, bladder and ureter was determined by plating the macerated tissue (FIG. 2F-l).

| SMILES | E. coli O157 (apparent MIC in screen) (E. coli O157:H7) [µg/mL] | further results |
| --- | --- | --- |
| CC(C)C[C@H](NC(=O)[C@H](CC(C)C)NC(=O)[C@H](CC(C)C)NC(=O)[C@H](CCCNC(=N)N)NC(=O)[C@@H]1CCCN1C(=O)[C@H](CCCNC(=N)N)NC(=O)[C@H](CCCNC(=N)N)NC(=O)[C@@H](NC(=O)[C@H](CC(C)C)NC(=O)[C@H](CC(C)C)NC(=O)[C@H](CO)NC(=O)[C@H](CC(C)C)NC(=O)[C@H](CCCNC(=N)N)NC(=O)[C@H](CC(C)C)NC(=O)[C@@H](N)CCCNC(=N)N)C(C)C)C(=O)N[C@@H](CO)C(=O)N[C@@H](CC(C)C)C(=O)N[C@@H](CC(C)C)C(=O)N[C@H](C(=O)N[C@@H](CCCNC(=N)N)C(=O)N[C@@H](CCCNC(=N)N)C(=O)O)C(C)C [Peptide P76] (H-RLRLSLLVRRPRLLLSLLVRR-OH; N-terminus and C-terminus assumed) | 12 |  |
| CC(C)C[C@H](NC(=O)[C@H](C)NC(=O)[C@H](CCCNC(=N)N)NC(=O)[C@@H]1CCCN1C(=O)[C@H](CCCNC(=N)N)NC(=O)[C@H](CCCNC(=N)N)NC(=O)[C@H](CC(C)C)NC(=O)[C@H](CC(C)C)NC(=O)[C@@H](NC(=O)[C@@H](NC(=O)[C@H](CC(C)C)NC(=O)[C@H](CC(C)C)NC(=O)[C@H](C)NC(=O)[C@@H](N)CCCNC(=N)N)[C@@H](C)O)[C@@H](C)O)C(=O)N[C@@H](CC(C)C)C(=O)N[C@H](C(=O)N[C@H](C(=O)N[C@@H](CC(C)C)C(=O)N[C@@H](CC(C)C)C(=O)N[C@@H](CCCNC(=N)N)C(=O)N[C@@H](CCCNC(=N)N)C(=O)O)[C@@H](C)O)[C@@H](C)O [Peptide P5] (H-RALLTTLLRRPRALLTTLLRR-OH; N-terminus and C-terminus assumed) | 12 |  |
| CC(C)C[C@H](NC(=O)[C@H](C)NC(=O)[C@H](CC(C)C)NC(=O)[C@@H](NC(=O)[C@H](CCC(N)=O)NC(=O)[C@H](C)NC(=O)[C@H](CCCNC(=N)N)NC(=O)[C@@H]1CCCN1C(=O)[C@H](CCCNC(=N)N)NC(=O)[C@H](CCCNC(=N)N)NC(=O)[C@H](CC(C)C)NC(=O)[C@H](CC(C)C)NC(=O)[C@H](C)NC(=O)[C@H](CC(C)C)NC(=O)[C@@H](NC(=O)[C@H](CCC(N)=O)NC(=O)[C@H](C)NC(=O)[C@@H](N)CCCNC(=N)N)C(C)C)C(C)C)C(=O)N[C@@H](CC(C)C)C(=O)N[C@@H](CCCNC(=N)N)C(=O)N[C@@H](CCCNC(=N)N)C(=O)O [Peptide P40] (H-RAQVLALLRRPRAQVLALLRR-OH; N-terminus and C-terminus assumed) | 25 |  |
| CC(C)C[C@H](NC(=O)CNC(=O)[C@H](CCCNC(=N)N)NC(=O)[C@@H]1CCCN1C(=O)[C@H](CCCNC(=N)N)NC(=O)[C@H](CCCNC(=N)N)NC(=O)[C@H](C)NC(=O)[C@H](CCCNC(=N)N)NC(=O)[C@H](CC(C)C)NC(=O)[C@H](C)NC(=O)[C@H](CC(C)C)NC(=O)[C@H](CC(C)C)NC(=O)CNC(=O)[C@@H](N)CCCNC(=N)N)C(=O)N[C@@H](CC(C)C)C(=O)N[C@@H](C)C(=O)N[C@@H](CC(C)C)C(=O)N[C@@H](CC(C)C)C(=O)N[C@@H](C)C(=O)N[C@@H](CCCNC(=N)N)C(=O)N[C@@H](CCCNC(=N)N)C(=O)O [Peptide P114] (H-RGLLALRARRPRGLLALLARR-OH; N-terminus and C-terminus assumed) | 25 |  |
| CC(C)C[C@H](NC(=O)CNC(=O)[C@H](CCCNC(=N)N)NC(=O)[C@@H]1CCCN1C(=O)[C@H](CCCNC(=N)N)NC(=O)[C@H](CCCNC(=N)N)NC(=O)[C@@H]1CCCN1C(=O)[C@H](CC(C)C)NC(=O)[C@H](C)NC(=O)[C@@H]1CCCN1C(=O)CNC(=O)[C@H](CC(C)C)NC(=O)CNC(=O)[C@@H](N)CCCNC(=N)N)C(=O)NCC(=O)N1CCC[C@H]1C(=O)N[C@@H](C)C(=O)N[C@@H](CC(C)C)C(=O)N1CCC[C@H]1C(=O)N[C@@H](CCCNC(=N)N)C(=O)N[C@@H](CCCNC(=N)N)C(=O)O [P2 pro2] (H-RGLGPALPRRPRGLGPALPRR-OH) |  | MIC (E. coli O157): >100 µg/mL |
| CC(C)C[C@H](NC(=O)CNC(=O)[C@H](CCCNC(=N)N)NC(=O)[C@@H]1CCCN1C(=O)[C@H](CCCNC(=N)N)NC(=O)[C@H](CCCNC(=N)N)NC(=O)[C@H](C)NC(=O)[C@H](CC(C)C)NC(=O)[C@H](CC(C)C)NC(=O)[C@H](C)NC(=O)[C@H](CC(C)C)NC(=O)[C@H](CC(C)C)NC(=O)CNC(=O)[C@@H](N)CCCNC(=N)N)C(=O)N[C@@H](CC(C)C)C(=O)N[C@@H](C)C(=O)N[C@@H](CC(C)C)C(=O)N[C@@H](CC(C)C)C(=O)N[C@@H](C)C(=O)N[C@@H](CCCNC(=N)N)C(=O)N[C@@H](CCCNC(=N)N)C(=O)O [Peptide P14] (H-RGLLALLARRPRGLLALLARR-OH; N-terminus and C-terminus assumed) | 12 |  |
| CC(C)C[C@H](NC(=O)[C@H](C)NC(=O)[C@H](CCCNC(=N)N)NC(=O)[C@@H]1CCCN1C(=O)[C@H](CCCNC(=N)N)NC(=O)[C@H](CCCNC(=N)N)NC(=O)[C@H](CC(C)C)NC(=O)[C@H](CC(C)C)NC(=O)[C@H](C)NC(=O)[C@@H](NC(=O)[C@H](CCCNC(=N)N)NC(=O)[C@H](CC(C)C)NC(=O)[C@H](C)NC(=O)[C@@H](N)CCCNC(=N)N)C(C)C)C(=O)N[C@@H](C)C(=O)N[C@H](C(=O)N[C@@H](C)C(=O)N[C@@H](CC(C)C)C(=O)N[C@@H](CC(C)C)C(=O)N[C@@H](CCCNC(=N)N)C(=O)N[C@@H](CCCNC(=N)N)C(=O)O)C(C)C [Peptide P87] (H-RALRVALLRRPRALAVALLRR-OH; N-terminus and C-terminus assumed) | 25 |  |
| CC(C)C[C@H](NC(=O)CNC(=O)[C@H](CCCNC(=N)N)NC(=O)[C@@H]1CCCN1C(=O)[C@H](CCCNC(=N)N)NC(=O)[C@H](CCCNC(=N)N)NC(=O)[C@@H](NC(=O)[C@H](CC(C)C)NC(=O)[C@H](C)NC(=O)[C@H](CC(C)C)NC(=O)CNC(=O)[C@H](CC(C)C)NC(=O)CNC(=O)[C@H](CCCNC(=N)N)NC(=S)Nc1ccc2c(c1)C(=O)OC21c2ccc(O)cc2Oc2cc(O)ccc21)C(C)C)C(=O)NCC(=O)N[C@@H](CC(C)C)C(=O)N[C@@H](C)C(=O)N[C@@H](CC(C)C)C(=O)N[C@H](C(=O)N[C@@H](CCCNC(=N)N)C(=O)N[C@@H](CCCNC(=N)N)C(=O)O)C(C)C [FITC-colpeptin1] ({FITC}-RGLGLALVRRPRGLGLALVRR-OH; N-terminus and C-terminus assumed) |  | clearance of the peptide [1]: total clearance of the peptide after 24 h; duration of distribution of fluorescent material after injection [1]: at least 3 h |
| CC(C)C[C@H](NC(=O)[C@H](CC(N)=O)NC(=O)[C@H](CC(C)C)NC(=O)[C@H](CC(C)C)NC(=O)[C@@H](NC(=O)[C@H](CC(C)C)NC(=O)[C@H](CC(C)C)NC(=O)[C@H](CCCNC(=N)N)NC(=O)[C@@H]1CCCN1C(=O)[C@H](CCCNC(=N)N)NC(=O)[C@H](CCCNC(=N)N)NC(=O)[C@H](CC(C)C)NC(=O)[C@H](CC(N)=O)NC(=O)[C@H](CC(C)C)NC(=O)[C@H](CC(C)C)NC(=O)[C@@H](NC(=O)[C@H](CC(C)C)NC(=O)[C@H](CC(C)C)NC(=O)[C@@H](N)CCCNC(=N)N)[C@@H](C)O)[C@@H](C)O)C(=O)N[C@@H](CCCNC(=N)N)C(=O)N[C@@H](CCCNC(=N)N)C(=O)O [Peptide P49] (H-RLLTLLNLRRPRLLTLLNLRR-OH; N-terminus and C-terminus assumed) | 12 |  |
| CC(C)C[C@H](NC(=O)CNC(=O)[C@H](CC(C)C)NC(=O)[C@@H](NC(=O)[C@H](C)NC(=O)[C@H](CCCNC(=N)N)NC(=O)[C@@H]1CCCN1C(=O)[C@H](CCCNC(=N)N)NC(=O)[C@H](CCCNC(=N)N)NC(=O)[C@H](C)NC(=O)[C@H](CC(C)C)NC(=O)[C@H](CC(C)C)NC(=O)[C@H](CCCNC(=N)N)NC(=O)[C@H](CC(C)C)NC(=O)[C@@H](NC(=O)[C@H](C)NC(=O)[C@@H](N)CCCNC(=N)N)C(C)C)C(C)C)C(=O)N[C@@H](CC(C)C)C(=O)N[C@@H](C)C(=O)N[C@@H](CCCNC(=N)N)C(=O)N[C@@H](CCCNC(=N)N)C(=O)O [Peptide P113] (H-RAVLRLLARRPRAVLGLLARR-OH; N-terminus and C-terminus assumed) | 25 |  |
